Source: patent publication US11952328B2, “Selective ship inhibitors for treating disease” (THE RESEARCH FOUNDATION FOR THE STATE UNIVERSITY OF NEW YORK, priority 2018, dated 2024)

How the values were obtained:
RMA-Rael cells [1] = test: Overall survival of RMA-Rael tumor challenged hosts (Kaplan-Meier); assay type: in vivo, mice; conditions: C57BL/6 hosts, 1×10^5 RMA-Rael
Method: FIGS. 6A-6I show the survival of tumor bearing mice treated with a SHIP inhibitor. […] Hosts were treated on the day of tumor challenge and the following day as in FIG. 1. The 2-day treatment course was repeated each week for the duration of survival. […] Mice received either NK cell depleting, anti-NK1.1 antibody (PK136), or isotype control antibody prior to tumor challenge (5×10^5 RMA-Rael). The hosts received SHIP inhibitor two consecutive days each week until death. […] The hosts were treated on the day of tumor challenge and the following day as in FIG. 1. The 2-day treatment course was repeated each week for the duration of survival.
The most clinically relevant endpoint in any cancer therapy study is not a measured decrease in tumor burden, but instead, a significant increase in survival promoted by the treatment.
In order to further define 3AC′s capacity to control malignancy through immunomodulatory effects the capacity of 3AC to promote resistance of NSG, TcRa^−/− and NK cell depleted hosts to RMA-Rael tumor challenge was examined. As before, mice received treatment with 3AC or vehicle for two consecutive days each week followed by a five-day cessation of treatment to prevent disarming and/or exhaustion. This treatment strategy was continued indefinitely and survival was monitored (FIG. 6A). To confirm that, in addition to the chemotherapeutic effect documented in FIG. 5, 3AC-induced enhanced-NK and -T cell activity is important for the survival benefit following tumor challenge, NSG mice (mice deficient of all lymphocyte lineages) were challenged.
To determine if T cells are required for the 3AC-mediated survival benefit, the same expirement using TcRa^−/− hosts that lack a TcR-ab^+ T cell compartment was repeated. […] To directly test the requirement for an intact NK cell compartment for 3AC-mediated increased survival after tumor challenge, the experiment as described in FIG. 6A were repeated challenging C57BL/6 hosts that were first depleted of
NK cells. Here, prior to tumor challenge, hosts were injected with either NK cell depleting anti-NK1.1 antibody (C57BL/6-DNK) or with antibody isotype control (C57BL/6-iso) (FIG. 6B).
The SHIP1 inhibitor 3AC was then tested in a genetic model in which the molecular target, SHIP1, was absent in a key target population of T cells, which are required for protection in the RMA-Rael lymphoma challenge model. […] Thus, SHIP inhibitor protection after tumor challenge is lost when the T cell compartment lacks the molecular target (SHIP1) in T cells.
There are two paralogs of SHIP: SHIP1 which is expressed in a limited range of tissues including hematopoietic cells, and SHIP2 which is expressed by a wide array of cell types. To determine if SHIP2 may also play a role in host defense against malignancy as described above tumor bearing mice were treated with small-molecule inhibitors against SHIP2 as well. […] Stem Cells. (2015); 33: 848-858; Hoekstra, E. et al., Lipid phosphatase SHIP2 functions as oncogene in colorectal cancer by regulating PKB activation. Oncotarget. (2016) 7: 73525-73540). Like 3AC, pan-SHIP1/2 inhibitors such as K118 are also cytotoxic for RMA-Rael cells in vitro. The pan SHIP1/2 inhibitory compounds K118 and K149 were compared to the SHIP1 selective compound 3AC.
Simultaneous inhibition of both SHIP1and SHIP2 may be deleterious to the immune response promoted by 3AC. […] In the study, the SHIP1 selective inhibitor 3AC that provides for protection after RMA-Rael challenge was simulataneously co-administered.

SHIP2 = biological target: T1, SHIP2 (Homo sapiens, UniProt O15357); conditions: Suwa et al. 2009; cited from earlier work
T1 sequence (O15357 1-1258): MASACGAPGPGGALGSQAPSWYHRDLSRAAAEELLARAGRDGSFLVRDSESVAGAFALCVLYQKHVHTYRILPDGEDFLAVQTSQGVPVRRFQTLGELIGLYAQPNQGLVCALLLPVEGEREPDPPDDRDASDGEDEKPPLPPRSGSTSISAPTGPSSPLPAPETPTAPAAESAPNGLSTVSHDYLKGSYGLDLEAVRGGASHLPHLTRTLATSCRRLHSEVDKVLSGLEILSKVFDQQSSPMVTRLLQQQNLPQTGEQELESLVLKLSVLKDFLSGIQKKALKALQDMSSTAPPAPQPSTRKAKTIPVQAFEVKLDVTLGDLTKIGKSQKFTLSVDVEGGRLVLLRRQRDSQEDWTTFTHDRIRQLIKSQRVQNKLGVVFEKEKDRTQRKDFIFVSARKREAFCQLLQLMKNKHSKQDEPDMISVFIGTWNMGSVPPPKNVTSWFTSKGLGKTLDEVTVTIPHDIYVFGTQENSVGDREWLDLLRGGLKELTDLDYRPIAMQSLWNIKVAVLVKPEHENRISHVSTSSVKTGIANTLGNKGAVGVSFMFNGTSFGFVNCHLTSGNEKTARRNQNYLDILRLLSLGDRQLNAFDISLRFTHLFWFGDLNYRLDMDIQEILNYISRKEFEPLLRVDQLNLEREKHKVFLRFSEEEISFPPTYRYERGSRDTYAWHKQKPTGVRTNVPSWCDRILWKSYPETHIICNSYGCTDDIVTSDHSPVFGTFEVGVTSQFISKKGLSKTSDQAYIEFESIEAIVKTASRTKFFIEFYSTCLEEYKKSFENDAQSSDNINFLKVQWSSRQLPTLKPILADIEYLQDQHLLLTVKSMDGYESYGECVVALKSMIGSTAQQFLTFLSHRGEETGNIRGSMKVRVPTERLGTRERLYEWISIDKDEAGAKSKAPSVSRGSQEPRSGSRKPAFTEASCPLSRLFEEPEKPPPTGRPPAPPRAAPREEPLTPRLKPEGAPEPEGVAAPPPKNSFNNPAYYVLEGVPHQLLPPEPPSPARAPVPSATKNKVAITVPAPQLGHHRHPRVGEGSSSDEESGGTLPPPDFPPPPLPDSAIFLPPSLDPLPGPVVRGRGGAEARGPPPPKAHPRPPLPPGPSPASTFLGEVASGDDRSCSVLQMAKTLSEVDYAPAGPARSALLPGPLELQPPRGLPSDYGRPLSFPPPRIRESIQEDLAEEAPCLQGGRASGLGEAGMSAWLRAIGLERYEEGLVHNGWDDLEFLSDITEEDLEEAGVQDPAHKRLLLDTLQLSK

RMA-Rael cells [2] = test: RMA-Rael viability following in vitro treatment; assay type: cell-based, mice; conditions: 24 h, doses given as 5-20 pM, vs solvent only
Excerpt: FIGS. 5A-5I show the effects of SHIP1 inhibitor as a chemotherapeutic. […] FIG. 5D and FIG. 5E show the representative histograms and box-and-whisker plots of FasL expression by NK cells from C56BL/6 (p=0.0002; Unpaired t test with Welch's correction) or RAG1−/− (p<0.0001; Mann-Whitney U test) tumor challenged, SHIP inhibitor or vehicle treated hosts. […] (NK cells p=0.0192; Unpaired t test with Welch's correction. T cells p=0.0659; Mann-Whitney U test). Additionally, FIGS. 5A-5G show the analysis by flow cytometry on day 3 after hosts receive SHIP inhibitor or vehicle for two consecutive days. NK cells are defined as NK1.1+CD3ε−. The graphs are representative of at least two independent experiments with at least four SHIP inhibitor and vehicle treated mice. […] Viability is expressed as frequency at a given concentration expressed as a percentage of solvent only treated cells. The kill curve summarizes pooled data from three independent experiments using six replicate wells/concentration with mean ±SEM indicated (n=18 per group. One-way ANOVA with Dunnett's multiple comparisons. 0 pM vs. 20 pM Adjusted p value =0.0001. 0 pM vs. 15 pM Adjusted p value =0.0001. 0 pM vs. 10 pM Adjusted p value =0.0001. 0 pM vs. 7.5 pM Adjusted p value =0.0001. 0 pM vs. 5 pM Adjusted p value =0.0001). […]

SHIP1/2 = conditions: Brooks et al. 2015; Hoekstra et al. 2016; cited from earlier work

Row | SMILES | overall survival (protection) (RMA-Rael cells [1]; FIG. 6I, alone vs vehicle) | overall survival (effect on protection by 3AC) (RMA-Rael cells [1]; FIG. 6I, co-administered with 3AC) | selectivity for SHIP2 (SHIP2) | RMA-Rael viability (direct killing) (RMA-Rael cells [2]) | SHIP1/2 inhibitory activity (SHIP1/2) | overall survival (protection) (RMA-Rael cells [1]; FIG. 6H, vs vehicle)
1 | C[C@H](NC(=O)c1sccc1OCc1ccc(Cl)cc1)c1ccccc1 [AS1949490] | no protection | completely abrogated the protective effect of 3AC | high degree of selectivity | – | – | –
2 | C[C@@]12CCC[C@H]1[C@@H]1CC[C@H]3C[C@@H](N)CC[C@]3(C)[C@H]1CC2.Cl [Compound K118, 3β-amino-5α-androstane hydrochloride] | – | – | – | cytotoxic | pan-SHIP1/2 inhibitory activity | no protection
3 | CSc1ccc2c(c1)c(CCN)c(C)n2Cc1ccc(Cl)cc1.Cl [Compound K149, 2-[1-(4-chlorobenzyl)-2-methyl-5-(methylmercapto)-1H-3-yl] ethanaminium chloride] | – | – | – | – | pan-SHIP1/2 inhibitory activity | no protection
